Measured values published in patent US20240217957A1, “HETEROCYCLIC COMPOUND AND USE THEREOF” (TAKEDA PHARMACEUTICAL COMPANY LIMITED, priority 2022, published 2024).

Molecular target: T1, human OX2 receptor (Homo sapiens, UniProt O43614)
T1 construct: expressed in transfected cells
T1 sequence (O43614 1-444): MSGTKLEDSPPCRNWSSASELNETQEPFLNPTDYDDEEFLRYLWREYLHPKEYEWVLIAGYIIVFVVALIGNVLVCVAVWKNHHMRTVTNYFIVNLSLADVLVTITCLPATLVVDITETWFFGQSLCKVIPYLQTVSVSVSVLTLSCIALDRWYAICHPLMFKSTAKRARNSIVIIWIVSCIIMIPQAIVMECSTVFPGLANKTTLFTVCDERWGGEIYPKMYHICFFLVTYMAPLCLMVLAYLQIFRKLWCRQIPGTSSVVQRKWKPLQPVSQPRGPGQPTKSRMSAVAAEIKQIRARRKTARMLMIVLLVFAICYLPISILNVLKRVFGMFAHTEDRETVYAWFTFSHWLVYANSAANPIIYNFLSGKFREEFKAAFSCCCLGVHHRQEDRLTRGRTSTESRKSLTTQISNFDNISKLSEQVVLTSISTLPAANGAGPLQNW
Test: Measurement of orexin type 2 receptor agonist activity (calcium fluorescence, Fluo-4 AM, FDSS)
Type: cell-based
Conditions: compound at 3 μM; CHO cells forcibly expressing human OX2 receptor; DMSO = 0%, 10 nM orexin A (human) = 100%
Procedure: In order to obtain cell clones that stably express human orexin type 2 receptor, human orexin type 2 (residues 1-444, NCBI Reference Sequence: AK314279) was constructed in a pcDNA3.1 (+) vector (Invitrogen) to express in mammalian cells. This plasmid DNA was transfected into CHO-K1 cells by electroporation, and stable clones were obtained by limiting dilution using resistance to G418 as a selection marker.
CHO cells in which human OX2 receptor was forcibly expressed were seeded at 10,000 cells/well into a 384-well black transparent bottom plate (BD falcon), and were incubated at 37° C., 5% CO2 for 1 day after incubation at room temperature for 30 minutes. After removing the cell plate medium, assay buffer containing calcium indicator A (HBSS (Thermo Fisher Scientific), 20 mM HEPES (Thermo Fisher Scientific), 0.1% BSA (Sigma-Aldrich), 2.5 μg/mL Fluo-4 AM (Dojin Kagaku), 0.08% Pluronic F127 (Dojin Kagaku), 1.25 mM probenecid (Dojin Kagaku)) was added at 30 μL/well. After incubation in a 5% CO2 incubator at 37° C. for 30 minutes, it was incubated at room temperature for another 30 minutes. Add 10 μL/well of the test compound diluted with assay buffer B (HBSS, 20 mM HEPES, 0.1% BSA), and use FDSS uCELL (Hamamatsu Photonics) to measure the fluorescence value every 1 second for 1 minute, and then every 2 seconds for […]. It was measured for 1 minute and 40 seconds. The amount of fluorescence value when DMSO is added instead of the test compound is defined as 0%, and the amount of fluorescence value when orexin A (human) (Peptide Institute) with a final concentration of 10 nM is added is defined as 100%. The activity (%) of the test compound was calculated.

OX2R agonist activity (3 μM, %) [%]	Structure (SMILES)
99	Cc1cnc([C@@H]2CC(N3C[C@@H](NS(C)(=O)=O)[C@@](C)(F)C3)=NO2)c(-c2c(F)cccc2F)c1 (mixture of isomers) [Example 51, mixture of N-[(3R,4S)-1-{(5S)-5-[3-(2,6-difluorophenyl)-5-methylpyridin-2-yl]-4,5-dihydro-1,2-oxazol-3-yl}-4-fluoro-4-methylpyrrolidin-3-yl]methanesulfonamide and N-[(3S,4R)-1-{(5S)-5-[3-(2,6-difluorophenyl)-5-methylpyridin-2-yl]-4,5-dihydro-1,2-oxazol-3-yl}-4-fluoro-4-methylpyrrolidin-3-yl]methanesulfonamide]
108	Cc1cnc([C@@H]2CC(N3C[C@@H](C)[C@H](NS(C)(=O)=O)C3)=NO2)c(-c2c(F)cccc2F)c1 (single isomer, unassigned) [Example 71, optical isomer of N-[(3S,4R)-1-{(5S)-5-[3-(2,6-difluorophenyl)-5-methylpyridin-2-yl]-4,5-dihydro-1,2-oxazol-3-yl}-4-methylpyrrolidin-3-yl]methanesulfonamide or N-[(3R,4S)-1-{(5S)-5-[3-(2,6-difluorophenyl)-5-methylpyridin-2-yl]-4,5-dihydro-1,2-oxazol-3-yl}-4-methylpyrrolidin-3-yl]methanesulfonamide]
105	Cc1cnc([C@@H]2CC(N3C[C@@H](NS(C)(=O)=O)[C@@](C)(F)C3)=NO2)c(-c2c(F)cc(F)cc2F)c1 (single isomer, unassigned) [Example 75, optical isomer of N-[(3R,4S)-4-fluoro-4-methyl-1-{(5S)-5-[5-methyl-3-(2,4,6-trifluorophenyl)pyridin-2-yl]-4,5-dihydro-1,2-oxazol-3-yl}pyrrolidin-3-yl]methanesulfonamide or N-[(3S,4R)-4-fluoro-4-methyl-1-{(5S)-5-[5-methyl-3-(2,4,6-trifluorophenyl)pyridin-2-yl]-4,5-dihydro-1,2-oxazol-3-yl}pyrrolidin-3-yl]methanesulfonamide]
98	Cc1cnc([C@@H]2CC(N3C[C@H](F)[C@H](NS(=O)(=O)C4(F)CC4)C3)=NO2)c(-c2c(F)cc(F)cc2F)c1 (single isomer, unassigned) [Example 107, optical isomer of 1-fluoro-N-[(3R,4S)-4-fluoro-1-{(5S)-5-[5-methyl-3-(2,4,6-trifluorophenyl)pyridin-2-yl]-4,5-dihydro-1,2-oxazol-3-yl}pyrrolidin-3-yl]cyclopropane-1-sulfonamide or 1-fluoro-N-[(3S,4R)-4-fluoro-1-{(5S)-5-[5-methyl-3-(2,4,6-trifluorophenyl)pyridin-2-yl]-4,5-dihydro-1,2-oxazol-3-yl}pyrrolidin-3-yl]cyclopropane-1-sulfonamide]
105	Cc1cnc([C@@H]2CC(N3C[C@H](F)[C@H](NS(=O)(=O)C4(F)CC4)C3)=NO2)c(-c2c(F)cccc2F)c1 (single isomer, unassigned) [Example 117, optical isomer of N-[(3R,4S)-1-{(5S)-5-[3-(2,6-difluorophenyl)-5-methylpyridin-2-yl]-4,5-dihydro-1,2-oxazol-3-yl}-4-fluoropyrrolidin-3-yl]-1-fluorocyclopropane-1-sulfonamide or N-[(3S,4R)-1-{(5S)-5-[3-(2,6-difluorophenyl)-5-methylpyridin-2-yl]-4,5-dihydro-1,2-oxazol-3-yl}-4-fluoropyrrolidin-3-yl]-1-fluorocyclopropane-1-sulfonamide]
103	CS(=O)(=O)N[C@H]1CCN(C2=NOC(c3ccccc3-c3c(F)cccc3F)C2)C1 (stereo partly drawn) [Example 1, N-{(3S)-1-[5-(2′,6′-difluoro[1,1′-biphenyl]-2-yl)-4,5-dihydro-1,2-oxazol-3-yl]pyrrolidin-3-yl}methanesulfonamide]

More lines, now with the values behind:

Structure (SMILES)	OX2R agonist activity (3 μM, %) [%]
Cc1cnc([C@@H]2CC(O[C@@H]3CC[C@H](NS(C)(=O)=O)C3)=NO2)c(-c2c(F)cc(F)cc2F)c1 (mixture of isomers) [Example 62, mixture of N-[(1R,3S)-3-({(5S)-5-[5-methyl-3-(2,4,6-trifluorophenyl)pyridin-2-yl]-4,5-dihydro-1,2-oxazol-3-yl}oxy)cyclopentyl]methanesulfonamide and N-[(1S,3R)-3-({(5S)-5-[5-methyl-3-(2,4,6-trifluorophenyl)pyridin-2-yl]-4,5-dihydro-1,2-oxazol-3-yl}oxy)cyclopentyl]methanesulfonamide]	17
C[C@]1(F)CN(C2=NOC(c3c(F)cccc3-c3c(F)cccc3F)C2)C[C@H]1NS(C)(=O)=O (single isomer, unassigned) [Example 155, N-{(3R,4S)-4-fluoro-4-methyl-1-[5-(2′,3,6′-trifluoro[1,1′-biphenyl]-2-yl)-4,5-dihydro-1,2-oxazol-3-yl]pyrrolidin-3-yl}methanesulfonamide or N-{(3S,4R)-4-fluoro-4-methyl-1-[5-(2′,3,6′-trifluoro[1,1′-biphenyl]-2-yl)-4,5-dihydro-1,2-oxazol-3-yl]pyrrolidin-3-yl)methanesulfonamide]	99
C[C@]1(F)CN(C2=NOC(c3c(F)cc(F)cc3-c3c(F)cccc3F)C2)C[C@H]1NS(C)(=O)=O (single isomer, unassigned) [Example 164]	97
C[C@]1(F)CN(C2=NOC(c3c(F)ccc(F)c3-c3c(F)cccc3F)C2)C[C@H]1NS(C)(=O)=O (single isomer, unassigned) [Example 168]	103
CS(=O)(=O)N[C@H]1CCN(C2=NOC(c3ccccc3C3=CCCCC3)C2)C1 (stereo partly drawn) [Example 2, N-{(3S)-1-[5-(2′,3′,4′,5′-tetrahydro[1,1′-biphenyl]-2-yl)-4,5-dihydro-1,2-oxazol-3-yl]pyrrolidin-3-yl}methanesulfonamide]	77
CCS(=O)(=O)N[C@H]1CCN(C2=NOC(c3ccccc3-c3c(F)cccc3F)C2)C1 (stereo partly drawn) [Example 3, N-{(3S)-1-[5-(2′,6′-difluoro[1,1′-biphenyl]-2-yl)-4,5-dihydro-1,2-oxazol-3-yl]pyrrolidin-3-yl}ethanesulfonamide]	95
CS(=O)(=O)N[C@@H]1CN(C2=NOC(c3ccccc3-c3c(F)cccc3F)C2)CC1(F)F (stereo partly drawn) [Example 4, N-{(3R)-1-[5-(2′,6′-difluoro[1,1′-biphenyl]-2-yl)-4,5-dihydro-1,2-oxazol-3-yl]-4,4-difluoropyrrolidin-3-yl}methanesulfonamide]	104
CS(=O)(=O)N[C@H]1CCCN(C2=NOC(c3ccccc3-c3c(F)cccc3F)C2)CC1 (stereo partly drawn) [Example 5, N-{(4S)-1-[5-(2′,6′-difluoro[1,1′-biphenyl]-2-yl)-4,5-dihydro-1,2-oxazol-3-yl]azepan-4-yl}methanesulfonamide]	106
CS(=O)(=O)N[C@H]1CCCN(C2=NOC(c3ccccc3-c3c(F)cccc3F)C2)C1 (stereo partly drawn) [Example 6, N-{(3S)-1-[5-(2′,6′-difluoro[1,1′-biphenyl]-2-yl)-4,5-dihydro-1,2-oxazol-3-yl]piperidin-3-yl}methanesulfonamide]	98
